We go through 3 molecules from US5393923A, “3,5-di-t-butyl-4-hydroxyphenylmethylhydroxylamines and their derivatives, pharmaceutical compositions, and methods of use therefor” (Warner-Lambert Company, priority 1993, dated 1995).

Counter-ions that a name gives are not always drawn.

One data set deals with T1, cyclooxygenase (Rattus norvegicus, UniProt Q63921).
T1 construct: host or cells: RBL-1
T1 sequence (Q63921 27-602): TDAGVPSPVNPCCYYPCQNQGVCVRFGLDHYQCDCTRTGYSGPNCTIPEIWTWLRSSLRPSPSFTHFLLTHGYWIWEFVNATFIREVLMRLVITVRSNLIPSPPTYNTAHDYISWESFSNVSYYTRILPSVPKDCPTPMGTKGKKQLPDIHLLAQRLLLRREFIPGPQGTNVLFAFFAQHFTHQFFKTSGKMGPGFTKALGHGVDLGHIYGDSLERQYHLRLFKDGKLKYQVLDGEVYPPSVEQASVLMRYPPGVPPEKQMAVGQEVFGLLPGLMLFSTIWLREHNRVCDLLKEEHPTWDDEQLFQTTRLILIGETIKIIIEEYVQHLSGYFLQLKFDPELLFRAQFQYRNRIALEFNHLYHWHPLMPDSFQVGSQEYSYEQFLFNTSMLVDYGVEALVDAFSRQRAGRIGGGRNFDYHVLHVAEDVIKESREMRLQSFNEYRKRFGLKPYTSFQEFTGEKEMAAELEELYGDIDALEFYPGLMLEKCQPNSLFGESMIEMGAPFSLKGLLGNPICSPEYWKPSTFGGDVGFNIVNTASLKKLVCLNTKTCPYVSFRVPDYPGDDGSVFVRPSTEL
Kind of data set: ARBC whole cell cyclooxygenase assay (PGF2α formation, RBL-1 cells). Type of data set: cell-based. The settings on record: for IC50: 50% inhibition of PGF2α formation. On the procedure: (§1) ARBL/ARBC WHOLE CELL 5-LIPOXYGENASE AND CYCLOOXYGENASE ASSAYS The rat basophilic leukemia cell line (RBL-1) was obtained from the American Type Culture Collection (Rockville, Md.). Radioimmunoassay (RIA) kits of LTB4 and PGF2α were obtained from Amersham (Arlington Heights, Ill.) and Seragen (Boston, Mass.), respectively. RBL-1 cells are grown in suspension culture in Eagle's minimum essential medium supplemented with 12% fetal bovine serum at 37° C. in an incubator supplied with air-5% carbon dioxide. Cells are harvested by centrifugation. They are washed with cold phosphate-buffered saline, pH 7.4 (PBS; NaCl, 7.1 g; Na2 HPO4, 1.15 g; KH2 PO4, 0.2 g; and KCl, 0.2 g/L). Cells are finally suspended in PBS containing 1.0 mM calcium at a density of 2×10^6 cells/mL. Cells are incubated […] test agent (in DMSO) (1% DMSO is without effect on arachidonic acid metabolism) for 10 minutes at room temperature. Calcium ionophore A23187 (5 μM) is added and cells are incubated for 7 minutes at 37° C. The reaction is stopped by chilling the tubes on ice for 10 minutes. Cells are separated by centrifugation and the supernatant is stored at -20° C. Aliquots (100 μL) are analyzed for LTB4 and PGF2α using radioimmunoassay kits as provided by the supplier. Table 1 contains biochemical data for compounds of Formula I obtained from this whole cell assay as amount of inhibition at given μM or IC50 s which are calculated as the concentration of a test compound in micromoles (μM) causing 50% inhibition of LTB4 or PGF2αformation.

Data set [1] relates to carrageenan-induced rat foot paw edema. Nature of the data set: Carrageenan-induced rat foot paw edema-2 (CFE-2) assay. The format is in vivo. Particulars: dosed 1 hour before carrageenan, edema measured 5 hours after, read-out: CFE ID40. How it is done: CARRAGEENAN-INDUCED RAT FOOT PAW EDEMA-2 (CFE-2) ASSAY: PROTOCOL
Carrageenan solution (1% w/v) is prepared by dissolving 100 mg carrageenan (Marine Colloidal Div., Springfield, N.J.) in 10 mL of sterile saline (0.9%) solution (Travenol). The solution is vortexed for 30 to 45 minutes. Animals are dosed with compound 1 hour before carrageenan challenge. Foot paw edema is induced by injecting 0.10 mL of the 1% carrageenan subcutaneously into the plantar portion of the right hind paw of each rat under light anesthesia. Initial foot paw volume is measured immediately following carrageenan challenge using mercury plethysmography (Buxco Electronics). Edema is measured 5 hours after carrageenan. The difference between the 5-hour and the initial paw volume is expressed as delta edema. The delta edema for each test group of animals is used to calculate the percent inhibition of edema achieved by the compound at the test dose compared with the vehicle control group. The ID40 (the dose at which swelling is inhibited by 40%) is calculated by probit analysis for the dose at which 40% inhibition occurs.
On the technique in general: The carrageenan paw model is a standard test of acute inflammation.

For the next data set, the target named is T2, 5-lipoxygenase (Rattus norvegicus, UniProt P12527).
T2 construct: host or cells: RBL-1
T2 sequence (P12527 1-673): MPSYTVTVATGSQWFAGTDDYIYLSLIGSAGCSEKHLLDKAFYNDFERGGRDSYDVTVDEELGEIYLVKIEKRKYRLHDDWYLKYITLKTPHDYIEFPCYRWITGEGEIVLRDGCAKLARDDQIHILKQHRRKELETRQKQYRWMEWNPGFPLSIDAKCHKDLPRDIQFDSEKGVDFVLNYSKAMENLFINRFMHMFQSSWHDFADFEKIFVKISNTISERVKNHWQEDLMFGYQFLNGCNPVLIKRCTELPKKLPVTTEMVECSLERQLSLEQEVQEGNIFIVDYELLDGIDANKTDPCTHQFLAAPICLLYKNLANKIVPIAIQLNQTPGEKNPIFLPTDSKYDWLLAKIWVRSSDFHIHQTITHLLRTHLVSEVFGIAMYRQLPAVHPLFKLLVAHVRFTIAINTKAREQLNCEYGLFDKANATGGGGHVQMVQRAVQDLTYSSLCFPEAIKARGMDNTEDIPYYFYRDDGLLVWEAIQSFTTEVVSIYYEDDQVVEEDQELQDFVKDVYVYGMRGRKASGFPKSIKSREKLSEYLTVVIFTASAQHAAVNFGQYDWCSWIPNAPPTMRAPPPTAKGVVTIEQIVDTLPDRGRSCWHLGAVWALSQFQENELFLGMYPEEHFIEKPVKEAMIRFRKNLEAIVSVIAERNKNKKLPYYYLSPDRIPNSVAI
Nature of the data set: ARBL whole cell 5-lipoxygenase assay (LTB4 formation, RBL-1 cells). The format is cell-based. The settings on record: 50% inhibition of LTB4 formation. On the procedure: as §1

For data set [2], the system named is Mycobacterium-induced rat footpad edema. Nature of the data set: Mycobacterium-induced rat footpad edema assay (MFE). The settings on record: dosed 1 hour before Mycobacterium and on Days 1 and 2, swelling at 72 hours, read-out: MFE ID40. The format is in vivo. How it is done: MYCOBACTERIUM-INDUCED RAT FOOTPAD EDEMA ASSAY (MFE): PROTOCOL
Mycobacterium butyricum (5 mg/mL) is suspended in paraffin oil by sonication for 10 minutes in an ice bath. Footpad edema is induced on Day 0 by injecting 0.1 mL of the Mycobacterium mixture into the left hindpaw of lightly anesthetized rats. Swelling in the injected hindpaw is determined by mercury plethysmography 72 hours after injection. Groups of rats are treated with test compounds (suspended in 0.5% hydroxypropyl methylcellulose with 0.2% Tween-80) or vehicle 1 hour before Mycobacterium injection and on Days 1 and 2. Inhibition of swelling is determined by comparing the change in hindpaw volume in compound- and vehicle-treated rats. An ID40 (the dose at which swelling is inhibited by 40%) is calculated by probit analysis.

A further data set concerns gastric ulcers. Nature of the data set: Gastric ulcerogenicity (UD). The format is in vivo, Male outbred Wistar rats. The settings on record: @ 200 mg/kg; oral, fasted rats, 6 hours; class symbol. On the procedure: GASTRIC ULCEROGENICITY (UD): PROTOCOL
Male outbred Wistar rats (100 to 250 g) are fasted for 24 hours. After fasting, test compounds are administered orally (in 2 mL/kg of 0.5% hydroxypropyl methylcellulose) and the rats are denied access to food and water for 6 more hours. The rats are then sacrificed with CO2 so that the stomachs can be removed, opened along the greater curvature, and evaluated for the presence of gastric ulcers. Results are expressed as the percent of rats with gastric ulcers at a given dose or as the UD50 (the dose which causes ulcers in 50% of the rats).

As to `CN(O)C(c1ccccc1)c1cc(C(C)(C)C)c(O)c(C(C)(C)C)c1` (centres unmarked) [Example 19, 2,6-Bis(1,1-dimethylethyl)-4-[(hydroxymethylamino)phenylmethyl]phenol, monohydrochloride], the figures for the concentration for half-maximal inhibition (IC50) against cyclooxygenase and against 5-lipoxygenase were 4.3 µM and 1.2 µM, respectively. For the same molecule, in data set [1], the ED40 is greater than 30 mg/kg.
Consider `CC(C)(C)c1cc(C(NO)c2ccccc2)cc(C(C)(C)C)c1O` (centres unmarked) [Example 20], for which the IC50 (as a rule, the concentration needed to halve the response being measured) against cyclooxygenase was 4.1 µM; against 5-lipoxygenase it was 2.3 µM. The ED40 in data set [2] came to 3.8 mg/kg; in data set [1], 13.2 mg/kg. Further, the UD50 entry in the data set with gastric ulcers is given as “N (N = less than 40% inhibition at given concentration)”.
With `CC(=O)N(O)C(c1ccccc1)c1cc(C(C)(C)C)c(O)c(C(C)(C)C)c1` (centres unmarked) [Example 22, N-[[3,5-Bis(1,1-dimethylethyl)-4-hydroxyphenyl]-phenylmethyl]-N-hydroxyacetamide], on cyclooxygenase (@ 16 μM, A23187), the “ARBC inhibition of PGF2α at given concentration” value is recorded as 42/75. Moreover, the ED40 in data set [1] is greater than 30 mg/kg. On 5-lipoxygenase, half-maximal inhibition (IC50) was put at 4.8 µM.
